Test results: US6737383B1, “Herbicidal oxadiazolidines” (priority 1999, dated 2004)

Assays:
scentless chamomile = assay: Test E scentless chamomile; format: in vivo, Matricaria inodora; conditions: Preemergence
goosegrass = assay: Test D goosegrass; format: in vivo, Eleusine indica; conditions: Postemergence, 0 to 100 scale
large crabgrass = assay: Test D large crabgrass; format: in vivo, Digitaria sanguinalis; conditions: Postemergence, 0 to 100 scale
maize hybrid P33G26 = assay: Test G maize injury with safener-treated seed; conditions: for Mean plant response rating, maize: 28 days after application
Method in brief: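 Maize hybrid P33G26 seed, treated with dichlormid, fenchlorazole-ethyl or naphthalic anhydride or left untreated, was sown in soil pots, then sprayed pre-emergence with several compound rates at 310 L/ha. Plants grew in a greenhouse (14 h day, about 27/24 °C day/night), with 4–5 replicates. Injury was scored visually against untreated controls 28 days after application.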

Green foxtail [1] = assay: Test D green foxtail; format: in vivo; conditions: Rate 250 g/ha; Postemergence; 0 to 100 scale
pitted morningglory = assay: Test D pitted morningglory; format: in vivo, Ipomoea lacunosa; conditions: Postemergence, 0 to 100 scale
sourgrass = assay: Test D sourgrass; format: in vivo, Trichachne insularis; conditions: Postemergence, 0 to 100 scale
surinam grass = assay: Test D surinam grass; format: in vivo, Brachiaria decumbens; conditions: Postemergence, 0 to 100 scale
Amaranthus rudis (AMATA) = assay: Test F preemergence, alone and in mixture with rimsulfuron, AMATA; format: in vivo; conditions: 21 days after treatment, 0-100 scale
Experimental: (§1) Abutilon theophrasti (ABUTH), Chenopodium album (CHEAL), Amaranthus rudis (AMATA), Setaria faberii (SETFA), Panicum dichotomiflorum (PANDI), and Digitaria sanguinalis (DIGSA) were grown from seed in pots of an artificial potting mixture in a greenhouse. Compounds of the present invention were applied at 70 and 105 g ai/ha preemergence. Rimsulfuron was applied at 8.8 and 17.5 g ai/ha. Mixtures of the compounds of the present invention and rimsulfuron were also applied.
(§2) Following application, the plants were maintained by watering as needed. A fertilizer solution of Peter's 20-20-20 (10 pounds/5 gallons of water) plus Sprint 330, a Iron Chelate micronutrient, (113.5 grams/5 gallons of water) was injected into the water with an Anderson fertilizer injection system to provide approximately 219 ppm of nitrogen with each watering. Artificial lighting was used to supplement natural light to produce a 14 hour photoperiod and: an additional one hour light period was used between 1:00 am to 2:00 am for a night interruption. Greenhouse temperatures were targeted for 27° C. in the day and 21° C. at night. At 21 days after treatment, all plants were evaluated for injury as compared to control plants that were sprayed only with non-phytotoxic solvent.
(§3) Colby's equation was used to calculate the expected additive herbicidal effect of the mixtures of Compound 21 and the mixture partners listed above. […]

bermuda-grass = assay: Test D bermudagrass; format: in vivo, Cynodon dactylon; conditions: Postemergence, 0 to 100 scale
Green foxtail [2] = assay: Test D green foxtail; format: in vivo; conditions: Postemergence, 0 to 100 scale, 0 no injury, 100 complete control
dallisgrass = assay: Test D dallisgrass; format: in vivo, Paspalum dilatatum; conditions: Postemergence, 0 to 100 scale
Green foxtail [3] = assay: Test D green foxtail; format: in vivo; conditions: Postemergence, 0 to 100 scale, 0 no injury, 100 complete control; remark: listed apart in the source
[4] = test system: Panicum dichotomiflorum (PANDI); assay: Test F preemergence, alone and in mixture with rimsulfuron, PANDI; format: in vivo; conditions: 21 days after treatment, 0-100 scale
Experimental: as §1, §2, §3

[5] = test system: Abutilon theophrasti (ABUTH); assay: Test F preemergence, alone and in mixture with rimsulfuron, ABUTH; format: in vivo; conditions: 21 days after treatment, 0-100 scale
Experimental: as §1, §2, §3

common pursiane = assay: Test D common purslane; format: in vivo, Portulaca oleracea; conditions: Postemergence, 0 to 100 scale
Johnson grass = assay: Test D Johnson grass; format: in vivo, Sorghum halepense; conditions: Postemergence, 0 to 100 scale
[6] = Rate 16 g/ha, 0 no injury, 100 complete control
[7] = Rate 32 g/ha, 0 no injury, 100 complete control
[8] = Rate 64 g/ha, 0 no injury, 100 complete control
[9] = Rate 125 g/ha, 0 no injury, 100 complete control
[10] = Alone: Cmpd. rate 70, Rimsulfuron 0
[11] = Alone: Cmpd. rate 105, Rimsulfuron 0

CC(C)N(C(=O)n1oc(=O)n(C(C)C)c1=O)c1ccc(Cl)cc1 [Compound 114]
Plant response rating, Scentless chamo (scentless chamomile; Rate 125 g/ha, 0 to 100 scale (0 no effect, 100 complete control)): 30 | Plant response rating, Scentless chamo (scentless chamomile; Rate 250 g/ha, 0 to 100 scale): 30 | Plant response rating, Scentless chamo (scentless chamomile; Rate 500 g/ha, 0 to 100 scale where 0 is no effect and 100 is complete control): 10

CC(C)N(C(=O)n1oc(=O)n(C(C)C)c1=O)c1ccc(F)cc1 [Compound 131]
Plant response rating, Goosegrass (goosegrass; [6]): 90 | Plant response rating, Goosegrass (goosegrass; [7]): 100 | Plant response rating, Goosegrass (goosegrass; [8]): 100 | Plant response rating, Goosegrass (goosegrass; [9]): 100 | Plant response rating, Goosegrass (goosegrass; Rate 250 g/ha): 100 | Plant response rating Large crabgrass (large crabgrass; [6]): 90 | Plant response rating Large crabgrass (large crabgrass; [7]): 100 | Plant response rating Large crabgrass (large crabgrass; [8]): 100 | Plant response rating Large crabgrass (large crabgrass; [9]): 100 | Plant response rating Large crabgrass (large crabgrass; Rate 250 g/ha): 100 | Mean plant response rating, maize (maize hybrid P33G26; Safener Dichlormid (seed treatment), Rate 70 g ai/ha): 3 percent control | Mean plant response rating, maize (maize hybrid P33G26; Safener Dichlormid (seed treatment), Rate 140 g ai/ha): 3 percent control | Mean plant response rating, maize (maize hybrid P33G26; Safener Dichlormid (seed treatment), Rate 280 g ai/ha): 3 percent control | Mean plant response rating, maize (maize hybrid P33G26; Safener Dichlormid (seed treatment), Rate 560 g ai/ha): 40 percent control | Mean plant response rating, maize (maize hybrid P33G26; Safener Fenchlorazole-ethyl (seed treatment), Rate 70 g ai/ha): 85 percent control | Mean plant response rating, maize (maize hybrid P33G26; Safener Fenchlorazole-ethyl (seed treatment), Rate 140 g ai/ha): 91 percent control | Mean plant response rating, maize (maize hybrid P33G26; Safener Fenchlorazole-ethyl (seed treatment), Rate 280 g ai/ha): 92 percent control | Mean plant response rating, maize (maize hybrid P33G26; Safener Fenchlorazole-ethyl (seed treatment), Rate 560 g ai/ha): 96 percent control | Mean plant response rating, maize (maize hybrid P33G26; Safener None, Rate 70 g ai/ha): 80 percent control | Mean plant response rating, maize (maize hybrid P33G26; Safener None, Rate 140 g ai/ha): 88 percent control | Mean plant response rating, maize (maize hybrid P33G26; Safener None, Rate 280 g ai/ha): 91 percent control | Mean plant response rating, maize (maize hybrid P33G26; Safener None, Rate 560 g ai/ha): 95 percent control | Mean plant response rating, maize (maize hybrid P33G26; Safener naphthalic anhydride (seed treatment), Rate 140 g ai/ha): 0 percent control | Injury to maize (maize hybrid P33G26; absence of any safener, rates ranging from 70 to 560 g/ha): severely injurious to maize | Plant response rating, Green foxtail (Green foxtail [1]): 100 | Plant response rating, P. morninglory (pitted morningglory; [6]): 0 | Plant response rating, P. morninglory (pitted morningglory; [7]): 0 | Plant response rating, P. morninglory (pitted morningglory; [8]): 0 | Plant response rating, P. morninglory (pitted morningglory; [9]): 0 | Plant response rating, P. morninglory (pitted morningglory; Rate 250 g/ha): 100 | Sourgrass plant response rating (sourgrass; [9]): 50 | Plant response rating, Sourgrass (sourgrass; Rate 250 g/ha): —80 | Plant response rating, Surinam grass (surinam grass; [6]): 0 | Plant response rating, Surinam grass (surinam grass; [7]): 40 | Surinam grass plant response rating (surinam grass; [8]): 60 | Surinam grass plant response rating (surinam grass; [9]): 100 | Plant response rating, Surinam grass (surinam grass; Rate 250 g/ha): 100 | AMATA Observed (Amaranthus rudis (AMATA); [10]): 50% | AMATA Observed (Amaranthus rudis (AMATA); [11]): 40% | Plant response rating, Bermudagrass (bermuda-grass; [6]): 30 | Plant response rating, Bermudagrass (bermuda-grass; [7]): 90 | Plant response rating, Bermudagrass (bermuda-grass; [8]): 100 | Plant response rating, Bermudagrass (bermuda-grass; [9]): 100 | Plant response rating, Bermudagrass (bermuda-grass; Rate 250 g/ha): 100 | Plant response rating, Green foxtail (Green foxtail [2]; Rate 16 g/ha): 0 | Plant response rating, Green foxtail (Green foxtail [2]; Rate 32 g/ha): 60 | Plant response rating, Dallisgrass (dallisgrass; [6]): 20 | Plant response rating, Dallisgrass (dallisgrass; [7]): 60 | Plant response rating, Dallisgrass (dallisgrass; [8]): 100 | Plant response rating, Dallisgrass (dallisgrass; [9]): 100 | Plant response rating, Dallisgrass (dallisgrass; Rate 250 g/ha): 100 | Green foxtail plant response rating (Green foxtail [3]; Rate 64 g/ha): 100 | Green foxtail plant response rating (Green foxtail [3]; Rate 125 g/ha): 100 | PANDI Observed [4, 10]: 100% | PANDI Observed [4, 11]: 95% | ABUTH Observed [5, 10]: 40% | ABUTH Observed [5, 11]: 60% | Plant response rating, C. purslane (common pursiane; [6]): 0 | Plant response rating, C. purslane (common pursiane; [7]): 0 | Plant response rating, C. purslane (common pursiane; [8]): 0 | Plant response rating, C. purslane (common pursiane; [9]): 0 | Plant response rating, C. purslane (common pursiane; Rate 250 g/ha): 0 | Plant response rating Johnsongrass (Johnson grass; [6]): 0 | Plant response rating Johnsongrass (Johnson grass; [7]): 0 | Plant response rating Johnsongrass (Johnson grass; [8]): 30 | Plant response rating Johnsongrass (Johnson grass; [9]): 60 | Plant response rating Johnsongrass (Johnson grass; Rate 250 g/ha): 100
